The results in this text go back to patent publication US20040023276A1, “LXR-ligand induced genes and proteins” (priority 2002, published 2004).

In this experiment the test system is LXRLI1 gene. Kind of experiment: Microarray gene expression profiles of cells treated with LXR-ligand. Type of experiment: cell-based, human. To be noted: THP-1 cells, primary macrophages, primary hepatocytes; APD 0.001-0.1 μM, 6-24 hours; treated vs. untreated. From the text:
To identify human transcripts up or down regulated by LXR-ligand, FlexJet™ microarrays representing either 25,000 Unigene clusters were hybridized to a mixture of cRNAs prepared from samples obtained from untreated versus treated cells of various types. Microarrays, and materials and methods for preparing hybridization samples from purified RNA, hybridizing the microarrays, detecting hybridization signals, and data analysis are described in van't Veer,iet al. (2002 Nature 415:530-536) and Hughes, et al. (2001 Nature Biotechnol. 19:342-7).
Experiments were conducted comparing gene expression profiles of primary hepatocytes, primary human macrophage and THP-1 cells treated with a variety of compounds known to activate the LXR and PPAR nuclear receptor regulated pathways. Additional compound treatments were performed which are known to cause an increase, or decrease in cellular cholesterol. All cells were cultured at 37° C. in a humidified atmosphere consisting of 95% air and 5% carbon dioxide. For each cell sample, mRNA was extracted and purified using Trizol reagent (Invitrogen Corporation, Carlsbad, Calif.) followed by DNAse treatment, as described by Fu, et al. (2001 J. Biol. Chem. 276:38378-87). For the primary hepatocytes, the Trizol purification was followed by a RNasy DNAase (Promega Corp, Madison, Wis.) step per the manufacturer's instructions. […]

As to `CC(=O)Oc1ccc2c(c1)[C@@]1(C)CCC[C@](C)(C(=O)OC(=O)[C@@]3(C)CCC[C@]4(C)c5cc(OC(C)=O)ccc5CC[C@@H]34)[C@@H]1CC2` [APD, acetylpodocarpic dimer], the “Transcription of the LXRLI1 gene” value is “induced”.
